The record followed here is patent US8552058B2, “Application of L-n-butylphthalide in preventing and treating dementia” (CSPC Zhongqi Pharmaceutical Technology (Shijazhuang) Co., …, priority 2004, dated 2013).

The assay deals with neurons, substantia alba of optic tracts and GFAP-positive astrocytes in brain. Kind of assay: Pathological and immunohistochemical detection (H-E, K-B, GFAP staining) in 2-VO rats. It counts as in vivo, Wistar rats. The protocol: Male Wistar rats, which were 10-weeks old and weighed approximately 280 grams, were used. 5 animals were placed in each cage, while the room temperature was kept at 23° C., with food and water freely accessible. Rats were anaesthetized with sodium pentobarbital (40 mg/kg), then bilateral common carotid arteries were exposed and the envelope of common carotid arteries and vagus nerve was carefully separated. For the hypoperfusion model group, bilateral common carotid arteries were ligated with 5-0 silk thread. For the sham surgery group, the same operation was conducted but with no ligation of bilateral common carotid arteries. A little of sterile crystalline sulfanilamide powder was applied on the wound after the surgery, then the skin was sutured. One month after the surgery, water maze and step-through test were performed. Rats were randomly assigned into 8 groups, with 10 animals per group. 1) sham surgery group: the same operation as that in hypoperfusion group was conducted but without ligation of bilateral common carotid arteries; 2) solvent control group: only vegetable oil was orally administered; 3) DL-NBP 10 mg/kg group; 4) DL-NBP 30 mg/kg group; 5) L-NBP 10 mg/kg group; 6) L-NBP 30 mg/kg group; 7) D-NBP 30 mg/kg group; Respective medicines or solvent were drenched since the 10th day after the surgery. Water maze experiments were performed on the 29-33rd days since the surgery, while step-through tests were performed on the 34-35th days since the surgery. Animals were killed for biochemical assay or pathological examination on the 36th day. In all the ethological tests, medicines were administered 40 minutes prior to respective test. 4-6 animals were chosen from each group randomly. After the ethological experiments, rats were anaesthetized with pentobarbital (100 mg/kg ip). Animal's skin and thorax was sequentially cut open and the heart was sufficiently exposed. Left tip of the heart was cut open, a perfusion needle was inserted along the aorta. After clamping with hemostat, physiological saline was infused. […]

Consider `CCCC[C@@H]1OC(=O)c2ccccc21` [L-NBP, L-n-butylphthalide], for which the “number of GFAP-positive astrocytes (immunohistochemistry)” value (10 mg/kg) is “greatly reduced”. For the same compound, where the note is “10 mg/kg extended administration”, the “sparse substantia alba / vacuola in optic tracts (K-B staining)” value is “significant reduction of vacuola”. For the same compound, the “neuronal damage in cortex and hippocampal CA1 induced by hypoperfusion (H-E staining)” value (10 mg/kg, 5 weeks after ligation) is given as “could be significantly ameliorated”.
